The results in this text go back to patent publication US10583137B2, “Triazole DAGLα inhibitors” (THE SCRIPPS RESEARCH INSTITUTE, priority 2015, dated 2020).

Each structure is given as a SMILES string. Where only a bound is given, the exact number is not on record here.

What is called IC50 is the concentration that gives 50% inhibition.

One assay addresses DAGLα (hDAGLα-FLAG) (Homo sapiens (Human), UniProt Q9Y4D2). Kind of assay: competitive ABPP, membrane proteome of transfected HEK293T cells. The note with it: for inhibition at 0.0032 µM: 3.2 nM, read-out: DAGLα % inh. 3.2 nM; for IC50: read-out: DAGLα IC50. It counts as biochemical. The protocol: (§1) Compounds 19 and 20 were tested for in vitro inhibition of DAGLα and DAGLβ as measured by competitive activity-based protein profiling (ABPP) of […] using a HT-01 probe (targets DAGLα and DAGLβ) and a FP-Rh probe (targets serine hydrolases).
(§2) Briefly, membrane proteome (1 mg/ml, 20 μL) was prepared from HEK293T cells (transiently transfected with hDAGLα-FLAG or hDAGLα-S472A-FLAG, hDAGLβ-FLAG or hDAGLβ-S443A-FLAG) as described in Example 16. The proteome was incubated at room temperature with vehicle (DMSO) or compound in 0.5 μL DMSO for 30 min. The membrane proteome sample was subsequently treated for 30 min with HT-01 probe (1 μM) or FP-Rh probe (1 μM). The reactions were quenched with 10 μL 3× Laemmli sample buffer (final concentrations: 60 mM Tris-Cl pH 6.8, 2% (w/v) SDS, 10% (v/v) glycerol, 5% (v/v) (3-mercaptoethanol, 0.01% (v/v) bromophenol blue). The samples were directly loaded and resolved on SDS page gel (10% acrylamide). The gels were scanned using a ChemiDoc MP system (Cy3 settings, 605/50 filter).
(§3) The resolved proteins were transferred from the gels to a polyvinyldifluoride membrane for Western Blotting using a Trans-Blot® Turbo (BioRad). FLAG-tagged enzymes were stained using rabbit anti-FLAG as primary antibody, and goat-anti-rabbit HRP as secondary antibody. The blot was developed in the dark using a 10 mL luminal solution, 100 μL ECL enhancer and 3 μL H2O2. Chemiluminescence was visualized using a ChemiDoc XRS (BioRad).
(§4) The percentage of DAGL activity remaining in the assayed samples was determined by measuring the integrated optical intensity of the fluorescent protein bands of the Western Blot using image lab 4.1. The relative intensity was compared to the vehicle (DMSO) treated proteins, which were set to 100%. IC50 values were determined by plotting a log(inhibitor) vs. normalized response (Variable slope) dose-response curve generated using Prism software (GraphPad).

In the next assay the target is DAGLβ (hDAGLβ-FLAG) (Homo sapiens (Human), UniProt Q8NCG7). The assay is described as above. In kind it is biochemical. Particulars: for inhibition at 0.0032 µM: read-out: DAGLβ % inh. 3.2 nM; for IC50: read-out: DAGLβ IC50. The protocol:
as §1, §2, §3, §4

Chain of DAGLα (hDAGLα-FLAG) (Q9Y4D2 whole entry): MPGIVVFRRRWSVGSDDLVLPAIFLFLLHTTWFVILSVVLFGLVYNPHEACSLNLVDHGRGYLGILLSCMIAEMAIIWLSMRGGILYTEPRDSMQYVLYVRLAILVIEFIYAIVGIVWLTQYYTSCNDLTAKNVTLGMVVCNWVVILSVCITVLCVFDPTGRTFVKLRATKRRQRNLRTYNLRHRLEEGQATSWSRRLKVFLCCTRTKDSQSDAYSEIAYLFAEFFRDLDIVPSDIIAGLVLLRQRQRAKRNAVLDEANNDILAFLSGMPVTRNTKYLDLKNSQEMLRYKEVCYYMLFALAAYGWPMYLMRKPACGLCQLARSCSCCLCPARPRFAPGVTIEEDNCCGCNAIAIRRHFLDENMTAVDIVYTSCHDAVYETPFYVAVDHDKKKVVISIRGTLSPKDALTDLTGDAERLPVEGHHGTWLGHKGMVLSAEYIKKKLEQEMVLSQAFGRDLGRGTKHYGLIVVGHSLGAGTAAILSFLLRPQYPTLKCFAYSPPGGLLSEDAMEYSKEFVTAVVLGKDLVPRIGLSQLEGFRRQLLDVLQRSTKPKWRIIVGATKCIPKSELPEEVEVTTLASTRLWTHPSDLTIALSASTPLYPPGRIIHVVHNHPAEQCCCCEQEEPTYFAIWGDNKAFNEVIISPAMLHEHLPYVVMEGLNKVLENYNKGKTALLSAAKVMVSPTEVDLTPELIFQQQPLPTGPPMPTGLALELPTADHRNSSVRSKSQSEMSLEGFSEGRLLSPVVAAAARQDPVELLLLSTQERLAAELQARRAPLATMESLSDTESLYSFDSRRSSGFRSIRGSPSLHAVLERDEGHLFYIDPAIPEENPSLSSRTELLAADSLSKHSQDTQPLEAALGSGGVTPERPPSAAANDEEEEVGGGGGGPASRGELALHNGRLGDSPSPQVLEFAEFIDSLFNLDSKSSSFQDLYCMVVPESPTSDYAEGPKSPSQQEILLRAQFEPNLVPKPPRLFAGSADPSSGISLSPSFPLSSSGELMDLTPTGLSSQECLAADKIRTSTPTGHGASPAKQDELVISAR
Chain of DAGLβ (hDAGLβ-FLAG) (Q8NCG7 whole entry): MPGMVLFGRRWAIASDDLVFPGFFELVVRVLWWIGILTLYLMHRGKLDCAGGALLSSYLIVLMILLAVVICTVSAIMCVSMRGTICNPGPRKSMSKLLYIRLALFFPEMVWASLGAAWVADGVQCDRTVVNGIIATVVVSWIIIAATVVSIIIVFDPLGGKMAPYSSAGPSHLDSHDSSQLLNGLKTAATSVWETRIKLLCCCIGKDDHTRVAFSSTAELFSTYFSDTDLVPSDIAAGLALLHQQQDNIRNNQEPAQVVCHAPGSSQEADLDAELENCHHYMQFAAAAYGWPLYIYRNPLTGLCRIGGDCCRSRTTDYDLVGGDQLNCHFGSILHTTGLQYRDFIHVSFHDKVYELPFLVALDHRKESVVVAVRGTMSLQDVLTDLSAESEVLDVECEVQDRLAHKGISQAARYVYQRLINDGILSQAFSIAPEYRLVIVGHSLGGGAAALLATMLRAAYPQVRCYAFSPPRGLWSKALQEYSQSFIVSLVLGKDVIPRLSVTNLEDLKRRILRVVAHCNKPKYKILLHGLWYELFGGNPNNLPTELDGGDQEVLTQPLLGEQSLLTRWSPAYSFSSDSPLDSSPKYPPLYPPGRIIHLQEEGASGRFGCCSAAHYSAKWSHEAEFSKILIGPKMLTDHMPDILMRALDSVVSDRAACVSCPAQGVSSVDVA

Consider `O=C(N1C[C@@H](OCC2CC2)CC[C@@H]1Cc1ccccc1)n1ncc(-c2ccc(OC(F)(F)F)cc2)n1` [Compound 45, ((2R,5S)-2-benzyl-5-(cyclopropylmethoxy)piperidin-1-yl)(4-(4-(trifluoromethoxy)phenyl)-2H-1,2,3-triazol-2-yl)methanone], for which the inhibition at 0.0032 µM at DAGLα (hDAGLα-FLAG) lay in the range of 25 to 50%; on DAGLβ (hDAGLβ-FLAG), 0 to 25%.

`O=C(N1C[C@H](O)C=C[C@@H]1COCc1ccccc1)n1cc(-c2ccc(OC(F)(F)F)cc2)nn1` [Compound 50, ((3R,6R)-6-((Benzyloxy)methyl)-3-hydroxy-3,6-dihydropyridin-1(2H)-yl)(4-(4-(trifluoromethoxy)phenyl)-1H-1,2,3-triazol-1-yl)methanone]: the inhibition at 0.0032 µM on DAGLα (hDAGLα-FLAG) and at DAGLβ (hDAGLβ-FLAG) was 0 to 25% in each case.

Turning to `O=C(N1C[C@H](O)C=C[C@@H]1COCc1ccccc1)n1ncc(-c2ccc(OC(F)(F)F)cc2)n1` [Compound 51, ((3R,6R)-6-((Benzyloxy)methyl)-3-hydroxy-3,6-dihydropyridin-1(2H)-yl)(4-(4-(trifluoromethoxy)phenyl)-2H-1,2,3-triazol-2-yl)methanone], the inhibition at 0.0032 µM at DAGLα (hDAGLα-FLAG) and at DAGLβ (hDAGLβ-FLAG) was 0 to 25% each time.

As to `CCC(CC)CN(CCc1ccncc1)C(=O)n1cc(-c2ccc(OC(F)(F)F)cc2)nn1` [Compound 53, N-(2-Ethylbutyl)-N-(2-(pyridin-4-yl)ethyl)-4-(4-(trifluoromethoxy)phenyl)-1H-1,2,3-triazole-1-carboxamide], the results for the IC50 at DAGLα (hDAGLα-FLAG) and at DAGLβ (hDAGLβ-FLAG) were 400 to 2000 nM and ≤ 400 nM, respectively.

In the case of `CCC(CC)CN(CCc1ccncc1)C(=O)n1ncc(-c2ccc(OC(F)(F)F)cc2)n1` [Compound 54, N-(2-Ethylbutyl)-N-(2-(pyridin-4-yl)ethyl)-4-(4-(trifluoromethoxy)phenyl)-2H-1,2,3-triazole-2-carboxamide], the half-inhibitory concentration (IC50) at DAGLα (hDAGLα-FLAG) is > 10000 nM; at DAGLβ (hDAGLβ-FLAG), 2000 to 10000 nM.

On to `O=C(N1CCCCC1Cc1ccccc1)n1cc(-c2ccc(-c3ccncc3)cc2)nn1` (centres unmarked) [Compound 59, (2-benzylpiperidin-1-yl)(4-(4-(pyridin-4-yl)phenyl)-1H-1,2,3-triazol-1-yl)methanone], for which the IC50 at DAGLα (hDAGLα-FLAG) is 400 to 2000 nM; at DAGLβ (hDAGLβ-FLAG), 2000 to 10000 nM.

Consider `O=C(N1CCCCC1Cc1ccccc1)n1cc(-c2ccc(-c3cccnc3)cc2)nn1` (centres unmarked) [Compound 60, (2-benzylpiperidin-1-yl)(4-(4-(pyridin-3-yl)phenyl)-1H-1,2,3-triazol-1-yl)methanone], for which the results for the IC50 on DAGLα (hDAGLα-FLAG) and at DAGLβ (hDAGLβ-FLAG) were ≤ 400 nM and 2000 to 10000 nM, respectively.

Regarding `O=C(N1CCCCC1Cc1ccccc1)n1cc(-c2ccc(-c3ccccn3)cc2)nn1` (centres unmarked) [Compound 61, (2-benzylpiperidin-1-yl)(4-(4-(pyridin-2-yl)phenyl)-1H-1,2,3-triazol-1-yl)methanone], the IC50 fell in the range of 400 to 2000 nM at DAGLα (hDAGLα-FLAG) and 2000 to 10000 nM at DAGLβ (hDAGLβ-FLAG).

On to `COc1ccc(-c2ccc(-c3cn(C(=O)N4CCCCC4Cc4ccccc4)nn3)cc2)c(OC)c1` (centres unmarked) [Compound 62, (2-benzylpiperidin-1-yl)(4-(2′,4′-dimethoxy-[1,1′-biphenyl]-4-yl)-1H-1,2,3-triazol-1-yl)methanone], for which the results for the IC50 at DAGLα (hDAGLα-FLAG) and on DAGLβ (hDAGLβ-FLAG) were ≤ 400 nM and 2000 to 10000 nM, respectively.

Consider `COc1cccc(OC)c1-c1ccc(-c2cn(C(=O)N3CCCCC3Cc3ccccc3)nn2)cc1` (centres unmarked) [Compound 63, (2-benzylpiperidin-1-yl)(4-(2′,6′-dimethoxy-[1,1′-biphenyl]-4-yl)-1H-1,2,3-triazol-1-yl)methanone], for which the concentration for half-maximal inhibition (IC50) was ≤ 400 nM on DAGLα (hDAGLα-FLAG) and 2000 to 10000 nM on DAGLβ (hDAGLβ-FLAG).

`COc1cc(C)cc(OC)c1-c1ccc(-c2cn(C(=O)N3CCCCC3Cc3ccccc3)nn2)cc1` (centres unmarked) [Compound 64, (2-benzylpiperidin-1-yl)(4-(2′,6′-dimethoxy-4′-methyl-[1,1′-biphenyl]-4-yl)-1H-1,2,3-triazol-1-yl)methanone]: the results for the half-maximal inhibitory concentration (IC50) on DAGLα (hDAGLα-FLAG) and on DAGLβ (hDAGLβ-FLAG) were ≤ 400 nM and 2000 to 10000 nM, respectively.

As for `COc1cnccc1-c1ccc(-c2cn(C(=O)N3CCCCC3Cc3ccccc3)nn2)cc1` (centres unmarked) [Compound 65, (2-benzylpiperidin-1-yl)(4-(4-(3-methoxypyridin-4-yl)phenyl)-1H-1,2,3-triazol-1-yl)methanone], the half-maximal inhibitory concentration (IC50) on DAGLα (hDAGLα-FLAG) was in the range of 400 to 2000 nM; at DAGLβ (hDAGLβ-FLAG) it was 2000 to 10000 nM.

As for `O=C(N1CCCCC1Cc1ccncc1)n1cc(-c2ccc(-c3ccccc3)cc2)nn1` (centres unmarked) [Compound 66, (4-([1,1′-biphenyl]-4-yl)-1H-1,2,3-triazol-1-yl)(2-(pyridin-4-ylmethyl)piperidin-1-yl)methanone], the IC50 at DAGLα (hDAGLα-FLAG) and at DAGLβ (hDAGLβ-FLAG) was ≤ 400 nM each time.

As for `COc1cc(OC)c(-c2ccc(-c3cn(C(=O)N4CCCCC4Cc4ccncc4)nn3)cc2)c(OC)c1` (centres unmarked) [Compound 67, (2-(pyridin-4-ylmethyl)piperidin-1-yl)(4-(2′,4′,6′-trimethoxy-[1,1′-biphenyl]-4-yl)-1H-1,2,3-triazol-1-yl)methanone], the figures for the IC50 on DAGLα (hDAGLα-FLAG) and at DAGLβ (hDAGLβ-FLAG) were ≤ 400 nM and 2000 to 10000 nM, respectively.

Consider `COc1cc(C)cc(OC)c1-c1ccc(-c2cn(C(=O)N3CCCCC3Cc3ccncc3)nn2)cc1` (centres unmarked) [Compound 68, (4-(2′,6′-dimethoxy-4′-methyl-[1,1′-biphenyl]-4-yl)-1H-1,2,3-triazol-1-yl)(2-(pyridin-4-ylmethyl)piperidin-1-yl)methanone], for which the IC50 is ≤ 400 nM at DAGLα (hDAGLα-FLAG) and 2000 to 10000 nM at DAGLβ (hDAGLβ-FLAG).

Take `COc1cc(Cl)cc(OC)c1-c1ccc(-c2cn(C(=O)N3CCCCC3Cc3ccncc3)nn2)cc1` (centres unmarked) [Compound 69, (4-(4′-chloro-2′,6′-dimethoxy-[1,1′-biphenyl]-4-yl)-1H-1,2,3-triazol-1-yl)(2-(pyridin-4-ylmethyl)piperidin-1-yl)methanone]: the IC50 at DAGLα (hDAGLα-FLAG) is ≤ 400 nM; at DAGLβ (hDAGLβ-FLAG) it was 2000 to 10000 nM.

Consider `COc1cncc(OC)c1-c1ccc(-c2cnn(C(=O)N3CCCCC3Cc3ccccc3)n2)cc1` (centres unmarked) [Compound 70, (2-benzylpiperidin-1-yl)(4-(4-(3,5-dimethoxypyridin-4-yl)phenyl)-2H-1,2,3-triazol-2-yl)methanone], for which the half-inhibitory concentration (IC50) on DAGLα (hDAGLα-FLAG) was 2000 to 10000 nM; on DAGLβ (hDAGLβ-FLAG), > 10000 nM.

In the case of `Cc1cncc(C)c1-c1ccc(-c2cn(C(=O)N3CCCCC3Cc3ccccc3)nn2)cc1` (centres unmarked) [Compound 71, (2-benzylpiperidin-1-yl)(4-(4-(3,5-dimethylpyridin-4-yl)phenyl)-1H-1,2,3-triazol-1-yl)methanone], the IC50 at DAGLα (hDAGLα-FLAG) was ≤ 400 nM; at DAGLβ (hDAGLβ-FLAG) it was 400 to 2000 nM.

For `O=C(N1CCCCC1Cc1ccccc1)n1cc(-c2ccc(-c3c(F)cncc3F)cc2)nn1` (centres unmarked) [Compound 72, (2-benzylpiperidin-1-yl)(4-(4-(3,5-difluoropyridin-4-yl)phenyl)-1H-1,2,3-triazol-1-yl)methanone], the IC50 at DAGLα (hDAGLα-FLAG) and on DAGLβ (hDAGLβ-FLAG) was 400 to 2000 nM throughout.

For `O=C(N1CCCCC1Cc1ccccc1)n1cc(-c2ccc(-c3c(Cl)cncc3Cl)cc2)nn1` (centres unmarked) [Compound 73, (2-benzylpiperidin-1-yl)(4-(4-(3,5-dichloropyridin-4-yl)phenyl)-1H-1,2,3-triazol-1-yl)methanone], the IC50 at DAGLα (hDAGLα-FLAG) and at DAGLβ (hDAGLβ-FLAG) was ≤ 400 nM in each case.

For the molecule `COc1cc(OC)c(-c2ccc(-c3cn(C(=O)N4CCCCC4Cc4ccccc4)nn3)cn2)c(OC)c1` (centres unmarked) [Compound 74, (2-benzylpiperidin-1-yl)(4-(6-(2,4,6-trimethoxyphenyl)pyridin-3-yl)-1H-1,2,3-triazol-1-yl)methanone], the IC50 on DAGLα (hDAGLα-FLAG) was ≤ 400 nM; at DAGLβ (hDAGLβ-FLAG), 2000 to 10000 nM.

With `CN(C)C(=O)c1ccc(-c2ccc(-c3cn(C(=O)N4CCCCC4Cc4ccccc4)nn3)cc2)cc1` (centres unmarked) [Compound 75, 4′-(1-(2-benzylpiperidine-1-carbonyl)-1H-1,2,3-triazol-4-yl)-N,N-dimethyl-[1,1′-biphenyl]-4-carboxamide], the half-inhibitory concentration (IC50) at DAGLα (hDAGLα-FLAG) was 2000 to 10000 nM; on DAGLβ (hDAGLβ-FLAG), > 10000 nM.

On to `CN(C)C(=O)c1cccc(-c2ccc(-c3cn(C(=O)N4CCCCC4Cc4ccccc4)nn3)cc2)c1` (centres unmarked) [Compound 76, 4′-(1-(2-benzylpiperidine-1-carbonyl)-1H-1,2,3-triazol-4-yl)-N,N-dimethyl-[1,1′-biphenyl]-3-carboxamide], for which the IC50 at DAGLα (hDAGLα-FLAG) was 400 to 2000 nM; on DAGLβ (hDAGLβ-FLAG) it was > 10000 nM.

As to `CN(C)C(=O)c1ccccc1-c1ccc(-c2cn(C(=O)N3CCCCC3Cc3ccccc3)nn2)cc1` (centres unmarked) [Compound 77, 4′-(1-(2-benzylpiperidine-1-carbonyl)-1H-1,2,3-triazol-4-yl)-N,N-dimethyl-[1,1′-biphenyl]-2-carboxamide], the IC50 on DAGLα (hDAGLα-FLAG) is ≤ 400 nM; on DAGLβ (hDAGLβ-FLAG) it was 400 to 2000 nM.

With `COc1cc(C(N)=O)cc(OC)c1-c1ccc(-c2cn(C(=O)N3CCCCC3Cc3ccccc3)nn2)cc1` (centres unmarked) [Compound 78, 4′-(1-(2-benzylpiperidine-1-carbonyl)-1H-1,2,3-triazol-4-yl)-2,6-dimethoxy-[1,1′-biphenyl]-4-carboxamide], the IC50 is 400 to 2000 nM at DAGLα (hDAGLα-FLAG) and > 10000 nM at DAGLβ (hDAGLβ-FLAG).
